Experimental data from US8642834B2, “Methods for the identification of agents that inhibit mesenchymal-like tumor cells or their formation” (OSI Pharmaceuticals, LLC, priority 2009, dated 2014).

Key:
Format in all cases: cell-based, human
CFPAC1 cells [1] = experiment: Doubling time after ligand treatment; conditions: after 7 day ligand treatment, versus untreated
Procedure: Cells were plated and treated with ligand for 7 days. On day 7, cells were counted and re-plated on 6 cm cell culture dishes. On days 3, 5, 7, 10 and 12, cells were trypsinized and counted to determine the total number of cells in the dish, in duplicate. Doubling time was calculated using the multiple time point method on the website www.doubling-time.com.

CFPAC-1 cells [2] = experiment: MET/EMT reversion experiment (ligand withdrawal); conditions: ligand 14 days, then removed; morphology and E-cadherin/vimentin immunoblot
Procedure: Cells were cultured in complete medium with and without ligand for 14 days, during which time the media and ligand treatment was replaced every 3-4 days. 3 Days prior to the first time point (Day 14), cells were trypsinised, counted and seeded into plastic 35 mm dishes at appropriate seeding densities for the first 3 collection time points. 3 Days prior to the last of the 3 collection time points, the procedure was repeated for the second 3 collection time points, and so on until all time points were collected. Ligand was removed from all cultures at Day 14. At the time of harvest, cells were harvested as described in the western blotting section above. All samples were micro-centrifuged and stored at −80° C. until the end of the experiment, at which time all samples were processed for western blotting.

CFPAC-1 cells [3] = experiment: Cell morphology by light microscopy; conditions: treated 7 days; versus untreated cells that formed colonies
Procedure: The CFPAC1 cell line was cultured in DMEM media (Gibco #11960) supplemented with 10% FBS (Sigma), 2 mM L Glutamine (Gibco), at 37° C., 5% CO2. For 7 day treatments, cells were seeded on tissue culture plastic in complete growth media and allowed to attach overnight at cell densities that would provide approximately 60-80% confluence at end of experiment. Ligand and/or inhibitor was added the following day (Day 0) in complete growth media and incubated at 37° C., 5% CO2. Ligand source and concentrations used are as follows: [1] From R&D systems, SDF-1α (stromal derived factor-1 alpha) at 100 ng/ml, TRANCE (TNF-related activation induced cytokine) at 50 ng/ml, FGF1 (fibroblast growth factor acidic) at 10 ng/ml, FGF2 (fibroblast growth factor basic) at 10 ng/ml, BMP4 (bone morphogenetic protein 4) at 100 ng/ml, BMP7 (bone morphogenetic protein 7) at 100 ng/ml, IGF2 (insulin-like growth factor 2) at 100 ng/ml, OSM (Oncostatin M) at 100 ng/ml, NRG1 (Neuregulin-1) at 50 ng/ml, PDGFaa (Platelet derived growth factor a) at 50 ng/ml, PDGFbb (platelet derive growth factor b) at 30 ng/ml, Ang2 (Angiopoeitin 2) at 400 ng/ml, amphiregulin at 100 ng/ml, HMGB 1 (Human high-mobility group box 1 protein) at 50 ng/ml; [2] […]

CFPAC1 cells [4] = experiment: 2D immunofluorescence of E-cadherin and vimentin; conditions: cells treated 7 days with ligand, compared to untreated cells
Procedure: Cells were plated on coverslips and stimulated with ligand the following day (day 0). On day 4, medium and ligands were refreshed. After 7 days, the cells were fixed in 4% paraformaldehyde (EMS#15701)/PBS (Gibco #14190) for 10 minutes at room temperature, and then permeabilized in 0.1% Triton X-100 (Sigma #P1379)/PBS for 10 minutes. Cells were blocked in 3% BSA/PBS for one hour and incubated in primary antibody solution (E-cadherin, Santa Cruz #sc21791 and Vimentin, Chemicon #AB5733 in blocking buffer) for two hours at room temperature. Cells were washed in PBS and incubated in secondary antibody (Invitrogen #A11029 and Chemicon #AP194R) for one hour followed by nuclear counterstain TO-PRO3 (Invitrogen #T3605). Coverslips were mounted on slides with Pro-Long Gold antifade reagent (Invitrogen P36934). Images were captured on a Leica DMRXE microcope with SP2 scanner using Leica Confocal Software.

CFPAC-1 cells [5] = experiment: Induction of EMT by growth factors and cytokines, E-cadherin and vimentin immunoblotting; conditions: CFPAC-1 cells treated 7 days with ligand
Procedure: The CFPAC1 cell line was cultured in DMEM media (Gibco #11960) supplemented with 10% FBS (Sigma), 2 mM L Glutamine (Gibco), at 37° C., 5% CO2. For 7 day treatments, cells were seeded on tissue culture plastic in complete growth media and allowed to attach overnight at cell densities that would provide approximately 60-80% confluence at end of experiment. Ligand and/or inhibitor was added the following day (Day 0) in complete growth media and incubated at 37° C., 5% CO2. Ligand source and concentrations used are as follows: [1] From R&D systems, SDF-1α (stromal derived factor-1 alpha) at 100 ng/ml, TRANCE (TNF-related activation induced cytokine) at 50 ng/ml, FGF1 (fibroblast growth factor acidic) at 10 ng/ml, FGF2 (fibroblast growth factor basic) at 10 ng/ml, BMP4 (bone morphogenetic protein 4) at 100 ng/ml, BMP7 (bone morphogenetic protein 7) at 100 ng/ml, IGF2 (insulin-like growth factor 2) at 100 ng/ml, OSM (Oncostatin M) at 100 ng/ml, NRG1 (Neuregulin-1) at 50 ng/ml, PDGFaa (Platelet derived growth factor a) at 50 ng/ml, PDGFbb (platelet derive growth factor b) at 30 ng/ml, Ang2 (Angiopoeitin 2) at 400 ng/ml, amphiregulin at 100 ng/ml, HMGB 1 (Human high-mobility group box 1 protein) at 50 ng/ml; [2] From Genscript, LIF (Leukemia inhibitory factor) at 20 ng/ml, GM-CSF (Granulocyte macrophage colony stimulating factor) at 25 ng/ml, M-CSF (Macrophage colony stimulating factor) at 50 ng/ml; [3] From Anaspec, PAR1 (Protease activated receptor 1 agonist) at 100 μM; PAR2 (Protease activated receptor 2 agonist; peptide SLIGKV-NH2, Cat. No. 60217-1) at 100 μM; PAR4 (Protease activated receptor […] agonist; peptide AYPGKF-NH2, Cat. No. 60218-1) at 100 μM; [4] From Peprotech, HGF (Hepatocyte Growth Factor) at 100 ng/ml; IL-31 (Interleukin-31) at 50 ng/ml, IL-33 (Interleukin-33) at 50 ng/ml, IL1-a (Interleukin-1 alpha) at 10 ng/ml, CTGF (Connective tissue growth factor) at 20 ng/ml, WISP1 (Wnt-1 inducible signaling pathway protein) at 20 ng/ml, PTHrP ([…] hormone-related protein) at 50 ng/ml, MCP1 (monocyte chemotactic protein-1) at 50 ng/ml; and [5] from Sigma, Fulvestrant at 1 μM. Fresh medium containing ligand and/or inhibitor was added 3-4 days after initial dose, and at Day 7 cells were harvested for western blot analysis.
Cells were harvested by washing once with PBS, and lysing on ice for 10 minutes with scraping (using a Cell Lifter, Corning Inc. #3008) in ice cold RIPA buffer (Sigma R0278) containing Protease inhibitor (Sigma P8340), Phosphatase inhibitors (Sigma P2850, P5726) and 200 μM Sodium Vanadate. Supernatents were micro-centrifuged at max speed, 4° C. for 10 minutes. Protein content was quantitated using the BCA method (Pierce #23225) and samples were normalized to total protein in Laemli buffer and heated at 100° C. for 10 minutes. SDS PAGE was run using a Bis-Tris gel system (Invitrogen NuPAGE) with MOPS buffer (Invitrogen NP0001), transferred onto nitrocellulose using the iBLOT system (Invitrogen) and blocked in PBS-T (0.1% Tween 20), 5% non-fat milk or BSA in guidance with primary Ab supplier requirements. All primary antibodies were incubated overnight at 4° C. in PBS-T (0.1% Tween 20) in either 5% non-fat milk or BSA, diluted to the following working dilutions: anti E Cadherin (Santa Cruz #sc-21791) 1:500 dilution; anti Vimentin (BD Biosciences #550513) 1:2000 dilution;); anti GAPDH HRP conjugate (Santa Cruz sc-25778) 1:1000 dilution; anti β-Actin (Sigma, A5441) 1:10,000 dilution. […]

HGF: Hepatocyte Growth Factor from Peprotech, used at 100 ng/ml
Effect on doubling time (CFPAC1 cells [1]): did not increase the doubling time | Reversal of EMT upon withdrawal of ligand (CFPAC-1 cells [2]): can be reversed | Cell morphology (CFPAC-1 cells [3]): less compact with more elongated cell morphology | E-cadherin and vimentin staining (CFPAC1 cells [4]): strong vimentin staining with no E-cadherin | Induction of EMT (E-cadherin down, vimentin up) (CFPAC-1 cells [5]): most complete EMT
